One assay has as its system human blood. In words: Labeling of blood cells: yield of cell labeling in whole blood. The format is cell-based. The note with it: 2 mCi (74 MBq) in 3 mL fresh human blood, 10 minutes, after washings. The protocol:
(§1) The radiopharmaceuticals of table I (2 mCi; 74 MBq) are incubated in 3 mL of a fresh sample of human blood for 10 minutes under slow shaking. The blood composition depends upon each sample taken from healthy volunteers (average composition: 1.6±0.3.10^10 Red Globules (RG) and 2.2±0.3.10^7 White Globules (WG) with 1.2±0.3.10^7 Polymorphs (57±9%) and 0.7±0.3.10^7 Lymphocytes (35±4%)]. Non-bound radioactivity is removed by successive washings (2×10 mL of RPMI culture medium 1640) of 10 minutes at 600 g. The yield of cell labeling is determined in a CAPINTEC CRC 120 activimeter. Cell viability is controlled by the Trypan blue exclusion test.
(§2) The results obtained, namely the labeling yield (Yield) and the percentages of activity in the separated fractions are given in tables 3 to 5.

The next assay has as its system whole blood. In words: Cell separation on whole blood (Polymorphprep gradient), activity in separated fractions. It counts as cell-based, human. Details: tested at 2 mCi (74 MBq) in 3 mL blood. The note with it: for Cell separation on whole blood (activity %): Polymorphprep: fraction: Polymorphprep gradient; for Cell separation on whole blood (activity %): Erythrocytes: fraction: erythrocytes; for Cell separation on whole blood (activity %): Leukocytes: fraction: leukocytes; for Cell separation on whole blood (activity %): Medium: fraction: medium. The protocol: as §1, §2
In a first experiment, a separation of the blood constituents is made on a double density Polymorphprep® gradient.
Whole blood from healthy volunteers is labeled with 2 mCi of [^99mTc(ArCS3)2(ArCS2)] following the method described above. The blood constituents are then separated by the Polymorphprep® double density gradient into two separate fractions: lymphocytes and polymorphs/erythrocytes. The whole blood, diluted in 2-3 mL RPMI, is initially delicately placed on the Polymorphprep® gradient and then centrifuged (300 g, 20 min, 37° C.). […] Counting is made on each fraction using a MAXM Y07 00 367 counter in order to confirm cell constitution.

The test system of a further assay is leukocytes. The conditions noted are these: in the presence of blood cells (erythrocytes, leukocytes, platelets); documents [3], [4], [6]; cited from earlier work.

On to `CCOc1ccc(C(=S)S[S][99Tc]([S]SC(=S)c2ccc(OCC)cc2)[S]C(=S)c2ccc(OCC)cc2)cc1` [Example 14, [^99mTc(4-EtOPhCS3)2(4-EtOPhCS2)]], for which the “Yield (±3%) of cell labeling” value in the assay on human blood was found to be 97%. Besides, in the assay on whole blood, the “Cell separation on whole blood (activity %): Polymorphprep” value turned out to be 3%, the “Cell separation on whole blood (activity %): Erythrocytes” value is reported as 22% and the “Cell separation on whole blood (activity %): Leukocytes” value turned out to be 75%.

For `COc1cccc(C(=S)S[S][99Tc]([S]SC(=S)c2cccc(OC)c2)[S]C(=S)c2cccc(OC)c2)c1` [Example 15, [^99mTc(3-MeOPhCS3)2(3-MeOPhCS2)]], the “Yield (±3%) of cell labeling” value with human blood turned out to be 99%. In addition, in the assay on whole blood, the “Cell separation on whole blood (activity %): Polymorphprep” value came out at 2%, the “Cell separation on whole blood (activity %): Erythrocytes” value came out at 25% and the “Cell separation on whole blood (activity %): Leukocytes” value is given as 73%.

For the compound `COc1cccc(C(=S)S[S][99Tc]([S]SC(=S)c2cccc(OC)c2)[S]C(=S)c2cccc(OC)c2)c1` [Example 16, [^99mTc(3-MeOPhCS3)2(3-MeOPhCS2)]], the “Yield (±3%) of cell labeling” value in the assay on human blood is recorded as 98%. In the assay on whole blood, the “Cell separation on whole blood (activity %): Polymorphprep” value is recorded as 2%, the “Cell separation on whole blood (activity %): Erythrocytes” value amounted to 16%, the “Cell separation on whole blood (activity %): Leukocytes” value is on record as 79% and the “Cell separation on whole blood (activity %): Medium” value was found to be 3%.

`Oc1ccc(C(=S)S[S][99Tc]([S]SC(=S)c2ccc(O)cc2)[S]C(=S)c2ccc(O)cc2)cc1` [Example 17, [^99mTc(4-OHPhCS3)2(4-OHPhCS2)]]: in the assay on human blood, the “Yield (±3%) of cell labeling” value was determined as 93%. In the assay with whole blood, the “Cell separation on whole blood (activity %): Polymorphprep” value turned out to be 1%, the “Cell separation on whole blood (activity %): Erythrocytes” value is on record as 12%, the “Cell separation on whole blood (activity %): Leukocytes” value was 85% and the “Cell separation on whole blood (activity %): Medium” value is listed as 2%.

Take `Oc1ccc(C(=S)S[S][99Tc]([S]SC(=S)c2ccc(O)cc2)[S]C(=S)c2ccc(O)cc2)cc1` [Example 18, [^99mTc(4-OHPhCS3)2(4-OHPhCS2)]]: the “Yield (±3%) of cell labeling” value in the assay with human blood came to 93%. In the assay with whole blood, the “Cell separation on whole blood (activity %): Polymorphprep” value stood at 3%, the “Cell separation on whole blood (activity %): Erythrocytes” value amounted to 7%, the “Cell separation on whole blood (activity %): Leukocytes” value was determined as 89% and the “Cell separation on whole blood (activity %): Medium” value is given as 1%.

In the case of `Fc1ccc(C(=S)S[S][99Tc]([S]SC(=S)c2ccc(F)cc2)[S]C(=S)c2ccc(F)cc2)cc1` [Example 19, [^99mTc(4-FPhCS3)2 (4-FPhCS2)]], the “Yield (±3%) of cell labeling” value with human blood came to 99%. Also, in the assay on whole blood, the “Cell separation on whole blood (activity %): Polymorphprep” value came to 4%, the “Cell separation on whole blood (activity %): Erythrocytes” value came out at 15%, the “Cell separation on whole blood (activity %): Leukocytes” value is on record as 80% and the “Cell separation on whole blood (activity %): Medium” value came out at 1%.

On to `Fc1ccc(C(=S)S[S][99Tc]([S]SC(=S)c2ccc(F)cc2)[S]C(=S)c2ccc(F)cc2)cc1` [Example 20, [^99mTc(4-FPhCS3)2 (4-FPhCS2)]], for which, in the assay with human blood, the “Yield (±3%) of cell labeling” value is 91%. In the assay with whole blood, the “Cell separation on whole blood (activity %): Polymorphprep” value is on record as 4%, the “Cell separation on whole blood (activity %): Erythrocytes” value is recorded as 12% and the “Cell separation on whole blood (activity %): Leukocytes” value was 84%.

Turning to `Cc1cc(C)c(C(=S)S[S][99Tc]([S]SC(=S)c2cc(C)c(C)cc2C)[S]C(=S)c2cc(C)c(C)cc2C)cc1C` [Example 21, [^99mTc(2,4,5-Me3PhCS3)2(2,4,5-Me3PhCS2)]], the “Yield (±3%) of cell labeling” value with human blood is reported as 90%. Besides, in the assay on whole blood, the “Cell separation on whole blood (activity %): Polymorphprep” value was 2%, the “Cell separation on whole blood (activity %): Erythrocytes” value amounted to 15%, the “Cell separation on whole blood (activity %): Leukocytes” value came out at 82% and the “Cell separation on whole blood (activity %): Medium” value stood at 1%.

In the case of `Cc1cc(C)c(C(=S)S[S][99Tc]([S]SC(=S)c2cc(C)c(C)cc2C)[S]C(=S)c2cc(C)c(C)cc2C)cc1C` [Example 22, [^99mTc(2,4,5-Me3PhCS3)2(2,4,5-Me3PhCS2)]], the “Yield (±3%) of cell labeling” value with human blood stood at 95%. In addition, in the assay with whole blood, the “Cell separation on whole blood (activity %): Polymorphprep” value amounted to 2%, the “Cell separation on whole blood (activity %): Erythrocytes” value came to 20% and the “Cell separation on whole blood (activity %): Leukocytes” value is given as 78%.

Consider `S=C(S[S][99Tc]([S]SC(=S)c1cccc2ccccc12)[S]C(=S)c1cccc2ccccc12)c1cccc2ccccc12` [Example 23, [^99mTc(1-naphCS3)2(1-naphCS2)]], for which, in the assay with human blood, the “Yield (±3%) of cell labeling” value is on record as 71%. In the assay with whole blood, the “Cell separation on whole blood (activity %): Polymorphprep” value is 5%, the “Cell separation on whole blood (activity %): Erythrocytes” value is listed as 46%, the “Cell separation on whole blood (activity %): Leukocytes” value was found to be 43% and the “Cell separation on whole blood (activity %): Medium” value is 6%.

On to `S=C(S[S][99Tc]([S]SC(=S)c1cccc2ccccc12)[S]C(=S)c1cccc2ccccc12)c1cccc2ccccc12` [Example 24, [^99mTc(1-naphCS3)2(1-naphCS2)]], for which the “Yield (±3%) of cell labeling” value in the assay on human blood was determined as 74%. For the same compound, in the assay on whole blood, the “Cell separation on whole blood (activity %): Erythrocytes” value is on record as 46%, the “Cell separation on whole blood (activity %): Leukocytes” value was 53% and the “Cell separation on whole blood (activity %): Medium” value is given as 1%.

Take `S=C(Cc1ccccc1)S[S][99Tc]([S]SC(=S)Cc1ccccc1)[S]C(=S)Cc1ccccc1` [Example 27, [^99mTc(PhCH2CS3)2(PhCH2CS2)]]: the “Yield (±3%) of cell labeling” value in the assay with human blood amounted to 88%. In the assay with whole blood, the “Cell separation on whole blood (activity %): Polymorphprep” value is reported as 10%, the “Cell separation on whole blood (activity %): Erythrocytes” value was 11%, the “Cell separation on whole blood (activity %): Leukocytes” value is listed as 77% and the “Cell separation on whole blood (activity %): Medium” value came out at 1%.

On to `S=C(CCc1ccccc1)S[S][99Tc]([S]SC(=S)CCc1ccccc1)[S]C(=S)CCc1ccccc1` [Example 28, [^99mTc(PhCH2CH2CS3)2(PhCH2CH2CS2)]], for which the “Yield (±3%) of cell labeling” value with human blood came to 91%. In the assay on whole blood, the “Cell separation on whole blood (activity %): Polymorphprep” value came to 2%, the “Cell separation on whole blood (activity %): Erythrocytes” value is 16%, the “Cell separation on whole blood (activity %): Leukocytes” value came out at 80% and the “Cell separation on whole blood (activity %): Medium” value was 2%.

As for `S=C(CCc1ccccc1)S[S][99Tc]([S]SC(=S)CCc1ccccc1)[S]C(=S)CCc1ccccc1` [Example 29, [^99mTc(PhCH2CH2CS3)2(PhCH2CH2CS2)]], in the assay with human blood, the “Yield (±3%) of cell labeling” value stood at 43%. For the same compound, in the assay with whole blood, the “Cell separation on whole blood (activity %): Polymorphprep” value is on record as 6%, the “Cell separation on whole blood (activity %): Erythrocytes” value worked out at 58%, the “Cell separation on whole blood (activity %): Leukocytes” value is recorded as 35% and the “Cell separation on whole blood (activity %): Medium” value is on record as 1%.

In the case of `CCON(CC)C(=S)[S][99Tc](#[N])[S]C(=S)N(CC)OCC` [[^99mTcN(NOET)2], nitrurobis(N-ethoxy-N-ethyldithiocarbamato)technetium-99m], the “blood cell selectivity of labeling” value in the assay on leukocytes is reported as “leukocyte labeling, of granulocytes in particular”.

On to [^99mTCN(CH3)(CH2)8CS2)2], for which the “blood cell selectivity of labeling” value in the assay on leukocytes is recorded as “selectivity for lymphocytes”.

On to “[^99mTc(2-Me-naphCS3)2(2-Me-naphCS2)] [Example 25]”, for which, in the assay with human blood, the “Yield (±3%) of cell labeling” value was found to be 96%. Also, in the assay with whole blood, the “Cell separation on whole blood (activity %): Polymorphprep” value worked out at 4%, the “Cell separation on whole blood (activity %): Erythrocytes” value turned out to be 10%, the “Cell separation on whole blood (activity %): Leukocytes” value was 85% and the “Cell separation on whole blood (activity %): Medium” value stood at 1%.

Regarding “[^99mTc(2-Me-naphCS3)2(2-Me-naphCS2)] [Example 26]”, in the assay on human blood, the “Yield (±3%) of cell labeling” value stood at 85%. In the assay with whole blood, the “Cell separation on whole blood (activity %): Polymorphprep” value came out at 2%, the “Cell separation on whole blood (activity %): Erythrocytes” value worked out at 15%, the “Cell separation on whole blood (activity %): Leukocytes” value is 79% and the “Cell separation on whole blood (activity %): Medium” value worked out at 4%.

Turning to “[^99mTc(C6H12CS3)2CS2(C6H12CS2)] [Example 30]”, in the assay on human blood, the “Yield (±3%) of cell labeling” value stood at 97%. Further, in the assay on whole blood, the “Cell separation on whole blood (activity %): Polymorphprep” value came out at 10%, the “Cell separation on whole blood (activity %): Erythrocytes” value came out at 13%, the “Cell separation on whole blood (activity %): Leukocytes” value was determined as 75% and the “Cell separation on whole blood (activity %): Medium” value was determined as 2%.

Consider “[^99mTc(C6H12CS3)2CS2(C6H12CS2)] [Example 31]”, for which, in the assay on human blood, the “Yield (±3%) of cell labeling” value is reported as 63%. Further, in the assay with whole blood, the “Cell separation on whole blood (activity %): Polymorphprep” value is reported as 3%, the “Cell separation on whole blood (activity %): Erythrocytes” value was determined as 29% and the “Cell separation on whole blood (activity %): Leukocytes” value was determined as 68%.

The values are drawn from patent US6469146B1, “Radiopharmaceutical products suitable for the selective labeling of lymphocytes, and their preparation” (Cis Bio International, priority 2000, dated 2002).
